{"source": "paper PMC3706801", "about": "(Alzheimer's Research & Therapy, 2013)", "key": {"NT2/D1 cells": {"tested_on": "NT2/D1 cells", "experiment": "Curcuminoid binding to NT2/D1 cells", "protocol": "NT2/D1 cells were grown in 25 cm^2 flasks to a density of about 90% confluence (6 to 8 × 10^6 cells) with 6 ml of Dulbecco's Minimal Essential Medium (DMEM) containing 5% fetal calf serum (FCS). […] The remaining volume consisted of varying ratios of DMEM and mouse serum to generate dose curves with constant curcuminoid and variable serum concentrations. […] Cells were then washed three times in the flasks with 5 mL of 0.9% saline and then scraped into 1 ml of the same solution. The cell suspension was centrifuged at 3,000 × g for one minute and the supernatant removed. The cell pellet was resuspended in 1 ml of 0.6% saline and re-centrifuged. The final pellet was suspended in 0.4 ml of 0.6% saline and mixed with 0.8 ml of acetone. All samples were stored at -20°C for 2 to 16 h and processed for reversed phase chromatography as described above for tissue preparation."}, "[1]": {"conditions": "cited from earlier work"}, "[2]": {"design": "method as in PMID 17340565", "conditions": "i.v. 10 mg/kg in DMA/PEG/dextrose, rats; read-out: initial plasma concentrations; cited from earlier work"}, "[3]": {"design": "method as in PMID 18417733", "conditions": "intramuscular 3 mg/kg, four hours after injection; cited from earlier work"}, "[4]": {"conditions": "HP-γ-CD-solubilized, dose curve ~50% BMAX, Figure 9B left"}, "[5]": {"conditions": "HP-γ-CD-solubilized, saturating (100% BMAX), 300 μM, no serum, Figure 9B middle"}, "[6]": {"conditions": "HP-γ-CD-solubilized, serum competition, 95% serum, Figure 9B right"}, "[7]": {"conditions": "mouse serum-solubilized, dose curve ~50% BMAX, Figure 9A left"}, "[8]": {"conditions": "mouse serum-solubilized, saturating (100% BMAX), 200 μM, 5% serum, Figure 9A middle"}, "[9]": {"conditions": "mouse serum-solubilized, serum competition, 100% serum, Figure 9A right"}}, "data": [{"molecule": "COc1cc(/C=C/C(O)=C/C(=O)/C=C/c2ccc(O)cc2)ccc1O", "note": "[DMC, demethoxycurcumin]", "values": [{"measurement": "relative contribution to cell-bound curcuminoids (percentage of the total)", "setting": "NT2/D1 cells; [4]", "result": 23, "unit": "%"}, {"measurement": "relative contribution to cell-bound curcuminoids (percentage of the total)", "setting": "NT2/D1 cells; [5]", "result": 24, "unit": "%"}, {"measurement": "relative contribution to cell-bound curcuminoids (percentage of the total)", "setting": "NT2/D1 cells; [6]", "result": 19, "unit": "%"}, {"measurement": "relative contribution to cell-bound curcuminoids (percentage of the total)", "setting": "NT2/D1 cells; [7]", "result": 24, "unit": "%"}, {"measurement": "relative contribution to cell-bound curcuminoids (percentage of the total)", "setting": "NT2/D1 cells; [8]", "result": 24, "unit": "%"}, {"measurement": "relative contribution to cell-bound curcuminoids (percentage of the total)", "setting": "NT2/D1 cells; [9]", "result": 20, "unit": "%"}]}, {"molecule": "bisdemethoxycurcumin [BDMC]", "values": [{"measurement": "relative contribution to cell-bound curcuminoids (percentage of the total)", "setting": "NT2/D1 cells; [4]", "result": 35, "unit": "%"}, {"measurement": "relative contribution to cell-bound curcuminoids (percentage of the total)", "setting": "NT2/D1 cells; [5]", "result": 48, "unit": "%"}, {"measurement": "relative contribution to cell-bound curcuminoids (percentage of the total)", "setting": "NT2/D1 cells; [6]", "result": 26, "unit": "%"}, {"measurement": "relative contribution to cell-bound curcuminoids (percentage of the total)", "setting": "NT2/D1 cells; [7]", "result": 27, "unit": "%"}, {"measurement": "relative contribution to cell-bound curcuminoids (percentage of the total)", "setting": "NT2/D1 cells; [8]", "result": 15, "unit": "%"}, {"measurement": "relative contribution to cell-bound curcuminoids (percentage of the total)", "setting": "NT2/D1 cells; [9]", "result": 15, "unit": "%"}]}, {"molecule": "curcumin", "values": [{"measurement": "relative contribution to cell-bound curcuminoids (percentage of the total)", "setting": "NT2/D1 cells; [4]", "result": 42, "unit": "%"}, {"measurement": "relative contribution to cell-bound curcuminoids (percentage of the total)", "setting": "NT2/D1 cells; [5]", "result": 28, "unit": "%"}, {"measurement": "relative contribution to cell-bound curcuminoids (percentage of the total)", "setting": "NT2/D1 cells; [6]", "result": 55, "unit": "%"}, {"measurement": "relative contribution to cell-bound curcuminoids (percentage of the total)", "setting": "NT2/D1 cells; [7]", "result": 49, "unit": "%"}, {"measurement": "relative contribution to cell-bound curcuminoids (percentage of the total)", "setting": "NT2/D1 cells; [8]", "result": 61, "unit": "%"}, {"measurement": "relative contribution to cell-bound curcuminoids (percentage of the total)", "setting": "NT2/D1 cells; [9]", "result": 65, "unit": "%"}, {"measurement": "plasma levels after oral administration", "setting": "[1]", "result": "≤ 1", "unit": "µM"}, {"measurement": "C0", "setting": "[2]", "result": "~27", "unit": "µM"}, {"measurement": "brain levels", "setting": "[3]", "result": "approximately 3.2 nmol/g"}]}]}
